According to patent US12433875B2, “(R)-4-(1-(6-(4-(trifluoromethyl)benzyl)-6-azaspiro[2.5]octane-5-carboxamido)-cyclopropyl) benzoic acid or its salt also in polymorphic form a for use in the prevention of heterotopic ossification” (ROTTAPHARM BIOTECH S.R.L., priority 2019, dated 2025):

Experiments:
[1] = test system: human osteoblasts from patients with Osteoarthritis; assay: Pathological osteoblast proliferation induced by IL-1β, MTT assay; format: cell-based; settings: IL-1β 2 ng/ml; time course 24 h, 6, 9 and 14 days; low concentrations; FIG. 11
Procedure: Human osteoblasts were purified from material obtained from patients undergoing knee replacement. Trabecular bone cells were isolated by spontaneous outgrowth culture methods. Purified osteoblasts were stimulated with IL-1β 2 ng/ml. Osteoblast proliferation was studied by MTT analysis in time course experiments (24 h, 6, 9, and 14 days). The form A of the sodium salt of (R)-4-(1-(6-(4-(trifluoromethyl)benzyl)-6-azaspiro[2.5]octane-5-carboxamido)cyclopropyl)benzoic acid resulted to be extremely effective in preventing in vitro osteoblast proliferation stimulated by IL1b.
This model has been performed to understand if the compound of the invention could correct the pathological hyperproliferation of osteoblasts taken from patients suffering from degenerative pathologies eventually resulting in a total joint replacement surgical procedure.
Trabecular bone of the tibial plateau was obtained from patients with Osteoarthritis (OA) undergoing joint replacement surgery. This material was purchased from Alphenyx (Marseille, France). […] The cell proliferation was analysed in a time course protocol by MTT assay. […] MTT was a tetrazolium salt especially useful to quantify living metabolically active cells. […] The plate was then read at λ=540 nm. […]

[2] = test system: Male DBA/1 mice (CIA model); assay: CIA in mice, histology of heterotopic bone formation; format: in vivo; settings: 30 mg/kg (lowest tested dose) once daily for 10 days, FIG. 9
Procedure: CIA in mice is another very popular translational model to mimic human arthritis. […] Male DBA/1 mice were immunized by intradermal injection at the base of the tail with an emulsion of 200 μg of bCII in CFA containing 3 mg/ml Mycobacterium tuberculosis. Non-immunized mice served as the negative control of disease. Animals were monitored by visual inspection for appearance of peripheral edema. […] Upon onset, animals were recruited and randomized. Recruitment was given a cut-off at day 40. Upon recruitment, arthritis clinical score was assigned, and edema was measured via caliper. Mice were randomized into the following groups: vehicle, 30 mg/kg the form A of the sodium salt of (R)-4-(1-(6-(4-(trifluoromethyl)benzyl)-6-azaspiro[2.5]octane-5-carboxamido)cyclopropyl)benzoic acid, 60 mg/kg the form A of the sodium salt of (R)-4-(1-(6-(4-(trifluoromethyl)benzyl)-6-azaspiro[2.5]octane-5-carboxamido)cyclopropyl)benzoic acid and 60 mg/kg naproxen. Animals received the test drugs once daily for 10 days. Histology was performed as described for rats.

O=C([O-])c1ccc(C2(NC(=O)[C@H]3CC4(CCN3Cc3ccc(C(F)(F)F)cc3)CC4)CC2)cc1.[Na+] [Form A, sodium (R)-4-(1-(6-(4-(trifluoromethyl)benzyl)-6-azaspiro[2.5]octane-5-carboxamido)cyclopropyl)benzoate]
osteoblast proliferation (MTT) [1]: able to dose-dependently counteract osteoblast proliferation
pathological bone formation (histology) [2]: completely abrogated in almost all animals
